Data taken from paper PMC8745601 (International Journal of Molecular Sciences, 2021).

Tests used:
[1] = tested on: HEK293 cells expressing OATP1A2*1, *2, *3; conditions: OATP1A2 transfected cells; 100 µmol/L doxorubicin, 72 h; versus DMSO
Protocol: (§1) Resazurin-Assay: To determine cell viability, cells were seeded at a density of 10,000 cells/well in 96-well multiplates. […] Afterward, 100 µL from each well was placed in a cavity of a 96-well plate, and the fluorescence was determined on a microplate reader (TECAN infinite M200, Tecan GmbH, Crailsheim, Germany) at an excitation wavelength of 530 nm and an emission wavelength of 590 nm.

[2] = tested on: breast cancer cell lines MCF-7, MDA-MB-231, ZR-75-1; assay: Resazurin cell viability assay in breast cancer cell lines; conditions: 100 µmol/L doxorubicin, 72 h, versus DMSO
Protocol: as §1

[3] = target: T1, OCT1 (Homo sapiens, UniProt O15245); conditions: MDCKII-OCT1; doxorubicin 0–100 µmol/L; 3 min; mean ± SD
T1 sequence (O15245 1-554): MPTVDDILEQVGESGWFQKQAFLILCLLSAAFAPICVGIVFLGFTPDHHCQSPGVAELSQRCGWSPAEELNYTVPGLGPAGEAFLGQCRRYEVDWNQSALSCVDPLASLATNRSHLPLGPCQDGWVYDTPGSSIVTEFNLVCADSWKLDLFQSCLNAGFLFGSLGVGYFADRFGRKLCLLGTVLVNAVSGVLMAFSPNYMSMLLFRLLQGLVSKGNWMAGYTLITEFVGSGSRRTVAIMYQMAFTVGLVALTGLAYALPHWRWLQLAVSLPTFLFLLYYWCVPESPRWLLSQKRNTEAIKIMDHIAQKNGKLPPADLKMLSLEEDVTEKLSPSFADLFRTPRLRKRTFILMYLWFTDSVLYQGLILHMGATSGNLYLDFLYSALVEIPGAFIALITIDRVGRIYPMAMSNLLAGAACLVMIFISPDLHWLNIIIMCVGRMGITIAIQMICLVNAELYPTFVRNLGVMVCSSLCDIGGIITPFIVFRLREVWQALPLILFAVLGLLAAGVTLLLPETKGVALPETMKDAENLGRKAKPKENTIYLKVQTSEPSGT
Protocol: (§2) Cellular uptake studies: For all transport studies, cells were seeded in 24-well plates and incubated in a full growth medium at an initial density of 200,000 cells/well for 3 days. Before starting each transport experiment, cells were washed with a pre-warmed (37 °C) incubation buffer [64]. […] Protein concentration of whole cell lysate was determined to quantify cell density after each experiment using the BCA assay according to the manufacturer’s instructions (Pierce, Rockford, IL, USA).
(§3) Statistical evaluation: All experiments were performed at least three times unless otherwise noted. The OATP1A2*1–*3 and OCT1-3 net uptake was obtained by subtracting the uptake into wild-type cells from that of the transporter-transfected cells. Km and Vmax were assessed using Prism 5.01 (GraphPad Software, San Diego, CA, USA). The differences in the doxorubcin uptake in OATP1A2*1–*3 and in OCT1-3 transfected cells were adjusted to the membranous transporter protein levels in the whole cell lysate. Km and Vmax are presented as arithmetic means ± standard deviation.

[4] = cumulative dose 450–600 mg/m^2; cited from earlier work
[5] = target: T2, OATP1A2*2 (Homo sapiens, UniProt P46721, I13T); assay: in vitro
T2 sequence (P46721 1-670 I13T): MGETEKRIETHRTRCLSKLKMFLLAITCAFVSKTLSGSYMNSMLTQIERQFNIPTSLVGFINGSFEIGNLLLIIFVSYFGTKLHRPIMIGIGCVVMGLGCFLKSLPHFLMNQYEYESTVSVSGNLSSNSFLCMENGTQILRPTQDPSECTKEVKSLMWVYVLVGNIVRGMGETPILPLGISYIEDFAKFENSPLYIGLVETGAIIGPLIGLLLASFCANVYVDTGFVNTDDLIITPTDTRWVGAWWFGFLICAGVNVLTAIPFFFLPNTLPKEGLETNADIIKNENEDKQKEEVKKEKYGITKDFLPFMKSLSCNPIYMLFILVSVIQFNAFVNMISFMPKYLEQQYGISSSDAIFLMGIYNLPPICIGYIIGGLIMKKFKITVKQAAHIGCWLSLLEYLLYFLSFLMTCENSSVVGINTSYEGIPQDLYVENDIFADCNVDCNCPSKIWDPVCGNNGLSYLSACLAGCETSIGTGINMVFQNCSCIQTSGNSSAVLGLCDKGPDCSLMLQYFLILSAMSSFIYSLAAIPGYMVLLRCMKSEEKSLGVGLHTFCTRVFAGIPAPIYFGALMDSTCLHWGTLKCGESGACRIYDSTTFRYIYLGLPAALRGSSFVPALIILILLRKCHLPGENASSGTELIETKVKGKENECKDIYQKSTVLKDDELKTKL
Protocol: as §2
Protein abundance of OATP1A2*1–*3 and OCT1–3 were measured by mass spectrometry-based targeted proteomics using a validated LC-MS/MS method as recently described [65].
200 μL of each cell lysate sample was mixed with 25 μL internal standard (5 µg/mL daunorubicin), 25 μL citric acid (1%), and 400 μL ice-cold acetonitrile for protein precipitation. […] The clear supernatant was transferred to HPLC vials. The measurement and quantitative evaluation were carried out using the LC-MS/MS system QTRAP 4000® (AB SCIEX, Darmstadt, Germany) and the Software Analyst® 1.4 (Applied Biosystems, Darmstadt, Germany).
Statistical evaluation: All experiments were performed at least three times unless otherwise noted. The OATP1A2*1–*3 and OCT1-3 net uptake was obtained by subtracting the uptake into wild-type cells from that of the transporter-transfected cells. […]

[6] = target: T1, OCT1; assay: in vitro; conditions: mdck
Protocol: as §2, §3

[7] = target: T3, OCT2 (Homo sapiens, UniProt O15244); assay: in vitro; conditions: mdck
T3 sequence (O15244 1-555): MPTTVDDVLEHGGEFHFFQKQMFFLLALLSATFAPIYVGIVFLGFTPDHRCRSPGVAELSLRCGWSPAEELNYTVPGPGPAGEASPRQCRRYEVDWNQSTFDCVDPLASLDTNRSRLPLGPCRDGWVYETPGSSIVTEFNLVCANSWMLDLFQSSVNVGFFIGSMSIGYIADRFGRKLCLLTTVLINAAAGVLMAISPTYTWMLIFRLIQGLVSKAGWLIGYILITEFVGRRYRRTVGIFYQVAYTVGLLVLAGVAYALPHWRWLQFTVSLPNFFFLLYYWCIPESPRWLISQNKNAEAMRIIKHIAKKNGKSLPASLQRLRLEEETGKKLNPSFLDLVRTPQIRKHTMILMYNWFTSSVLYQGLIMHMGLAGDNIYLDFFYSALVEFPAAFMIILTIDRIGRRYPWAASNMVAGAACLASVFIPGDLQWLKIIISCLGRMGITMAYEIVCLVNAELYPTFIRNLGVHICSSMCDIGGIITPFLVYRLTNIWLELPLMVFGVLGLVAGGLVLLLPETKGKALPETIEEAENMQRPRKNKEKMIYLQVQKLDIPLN
Protocol: as §2, §3

[8] = tested on: OATP1A2; conditions: transiently transfected HeLa cells, ref 22 (Lee et al.); cited from earlier work
[9] = tested on: OCT6; conditions: OCT6 affinity to doxorubicin; cited from earlier work

Structure (SMILES): COc1cccc2c1C(=O)c1c(O)c3c(c(O)c1C2=O)C[C@@](O)(C(=O)CO)C[C@@H]3O[C@H]1C[C@H](N)[C@H](O)[C@H](C)O1 [doxorubicin, Doxorubicin]
- cell viability in presence of doxorubicin [1]: significantly reduced
- cell viability in presence of doxorubicin [2]: significantly reduced
- Vmax [3]: 19.4 ± 3.78 pmol/mg/min
- risk of congestive heart failure [4]: 3–18%
- Km ([5]; HEK293 cells stably expressing OATP1A2*2): 5.84 ± 3.95 µM
- microsomal CLint ([5]; other cell line): 1.39 ± 0.65 µL/min/mg
- microsomal CLint at 3 min [6]: 4.16 ± 1.1 µL/min/mg
- microsomal CLint at 3 min [7]: 0.5 ± 0.26 µL/min/mg
- Km [8]: 31.7 µM
- Km [9]: ~5 µM
